The record followed here is patent US12084430B2, “Tricyclic urea compounds as JAK2 V617F inhibitors” (Incyte Corporation, priority 2022, dated 2024).

In data set [1] the target is T1, pseudo-kinase domain (JH2) of human V617F mutant JAK2 (Homo sapiens, UniProt O60674, F794H/V617F/W659A/W777A).
T1 construct: pseudo-kinase domain (JH2, amino-acids 536-812 with 3 surface mutations W659A, W777A, F794H); His (C); purchased BPS Bioscience 79498; host or cells: baculovirus expression system
The data set is described as follows: JAK2 LanthaScreen JH2-V617F binding assay. The conditions noted are these: read-out: JH2 V617F Bind IC50. The method, then:
Example B. JAK2 LanthaScreen JH2-V617F Binding Assay
JAK2 JH2-V617F binding assay utilizes pseudo-kinase domain (JH2, amino-acids 536-812 with 3 surface mutations W659A, W777A, F794H) of human V617F mutant JAK2 expressed as C-terminal His-Avi-tagged, biotinylated protein in a baculovirus expression system (BPS Bioscience, Catalog #79498). The assay was conducted in black 384-well polystyrene plates in a final reaction volume of 20 μL. JAK2 JH2-V617F (0.26 nM) was incubated with compounds (100 nL serially diluted in DMSO) in the presence of 50 nM Fluorescent JAK2-JH2 Tracer (MedChem Express Catalog #HY-102055) and 0.25 nM Streptavidin-Tb cryptate (Cisbio Part #610SATLB) in assay buffer (50 mM Tris, pH=7.5, 10 mM MgCl2, 0.01% Brij-35, 0.1% BSA, 1 mM EGTA, 5% Glycerol and 5 mM DTT). Non-specific binding was accessed in the presence of 2 mM ATP. After incubation for 1 hour at 25° C., LanthaScreen signals were read on a PHERAstar FS plate reader (BMG LABTECH). Data was analyzed with IDBS XLfit and GraphPad Prism 5.0 software using a four parameter dose response curve to determine IC50 for each compound.
A general note: TR-FRET usually uses a lanthanide donor and a delayed reading to cut background.

The nature of data set [2]: In vivo pharmacokinetics, cynomolgus monkey. Also noted: species or system Cynomolgus monkeys. The conditions noted are these: both sexes, plasma, oral 3.0 mg/kg, read-out: CYNO PO AUC. The method, then:
Example H. In Vivo Pharmacokinetics
Test compounds were administered to male Sprague Dawley rats or male and female Cynomolgus monkeys intravenously or via oral gavage. For intravenous (IV) dosing, test compounds were dosed at 1 mg/kg using a formulation of 10% dimethylacetamide (DMAC), 10% propylene glycol (PG) in acidified saline via IV bolus for rat or 10 min IV infusion for monkey. For oral (PO) dosing, test compounds were dosed at 3.0 mg/kg using 5% DMAC in 0.5% methylcellulose in citrate buffer (pH˜2.5). Blood samples were collected at predose and various time points up to 24 hours postdose. All blood samples were collected using EDTA as the anticoagulant and centrifuged to obtain plasma samples. The plasma concentrations of test compounds were determined by LC-MS/MS methods. The measured plasma concentrations were used to calculate PK parameters by standard noncompartmental methods using Phoenix® WinNonlin software program (version 8.0, Pharsight Corporation) or similar software. In rats and monkeys, cassette dosing of test compounds were conducted to obtain preliminary PK parameters. In vivo pharmacokinetic experiments with male beagle dogs may be performed under the conditions described above.

What is called IC50 is the concentration that gives 50% inhibition. What is called AUC is concentration integrated over time.

Where two headings read alike, the source gives them in different places.

T1 sequence (O60674 536-812 V617F/W659A/W777A/F794H): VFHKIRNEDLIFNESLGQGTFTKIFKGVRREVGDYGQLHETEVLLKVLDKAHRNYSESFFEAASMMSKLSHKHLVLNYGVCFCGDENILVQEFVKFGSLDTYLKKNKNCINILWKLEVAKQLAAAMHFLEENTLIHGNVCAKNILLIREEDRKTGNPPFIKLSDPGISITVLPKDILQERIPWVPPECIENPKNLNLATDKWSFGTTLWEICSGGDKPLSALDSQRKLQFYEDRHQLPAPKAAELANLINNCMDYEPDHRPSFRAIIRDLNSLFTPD

`[2H]C([2H])([2H])Oc1ccc(-c2c(-c3cn(C([2H])([2H])[2H])nc3F)[nH]c3ncc4c(c23)n([C@@H]2CC[C@@H](NC(=O)OC)C2)c(=O)n4C([2H])([2H])[2H])cc1` [Example 9, Methyl ((1R,3R)-3-(7-(3-fluoro-1-(methyl-d3)-1H-pyrazol-4-yl)-8-(4-(methoxy-d3)phenyl)-3-(methyl-d3)-2-oxo-3,6-dihydroimidazo[4,5-d]pyrrolo[2,3-b]pyridin-1(2H)-yl)cyclopentyl)carbamate]: the 50% inhibitory concentration (IC50) in data set [1] (Table A) and in data set [1] (Table C) was at most 10 nM throughout. Besides, the AUC in data set [2] was over 1.5 µM·h.
On to `[2H]C([2H])([2H])n1cc(-c2[nH]c3ncc4c(c3c2-c2ccc3c(cnn3C([2H])([2H])[2H])c2)n([C@@H]2CC[C@@H](NC(=O)OC)C2)c(=O)n4C([2H])([2H])[2H])c(F)n1` [Example 6, Methyl ((1R,3R)-3-(7-(3-fluoro-1-(methyl-d3)-1H-pyrazol-4-yl)-3-(methyl-d3)-8-(1-(methyl-d3)-1H-indazol-5-yl)-2-oxo-3,6-dihydroimidazo[4,5-d]pyrrolo[2,3-b]pyridin-1(2H)-yl)cyclopentyl)carbamate], for which the IC50 in data set [1] (Table A) and in data set [1] (Table C) was at most 10 nM each time. In addition, in data set [2], the area under the curve (AUC) was over 1.5 µM·h.
Take `COC(=O)N[C@@H]1CC[C@@H](n2c(=O)n(C)c3cnc4[nH]c(-c5cn(C)nc5OC)c(-c5ccccc5)c4c32)C1` [Example 2, Methyl ((1R,3R)-3-(7-(3-methoxy-1-methyl-1H-pyrazol-4-yl)-3-methyl-2-oxo-8-phenyl-3,6-dihydroimidazo[4,5-d]pyrrolo[2,3-b]pyridin-1(2H)-yl)cyclopentyl)carbamate]: the IC50 in data set [1] (Table A) and in data set [1] (Table C) was at most 10 nM throughout. Besides, the AUC in data set [2] was over 1.5 µM·h.
`[2H]C([2H])([2H])n1cc(-c2[nH]c3ncc4c(c3c2-c2ccc(C(C)(C)O)cc2)n([C@@H]2CC[C@@H](NC(=O)OC)C2)c(=O)n4C([2H])([2H])[2H])c(F)n1` [Example 10, Methyl ((1R,3R)-3-(7-(3-fluoro-1-(methyl-d3)-1H-pyrazol-4-yl)-8-(4-(2-hydroxypropan-2-yl)phenyl)-3-(methyl-d3)-2-oxo-3,6-dihydroimidazo[4,5-d]pyrrolo[2,3-b]pyridin-1(2H)-yl)cyclopentyl)carbamate]: the IC50 in data set [1] (Table A) and in data set [1] (Table C) was at most 10 nM each time. Moreover, in data set [2], the AUC is 0.5 to 1.5 µM·h.
Regarding `[2H]C([2H])([2H])n1cc(-c2[nH]c3ncc4c(c3c2-c2ccc(F)cc2)n([C@@H]2CC[C@@H](NC(=O)OC)C2)c(=O)n4C([2H])([2H])[2H])c(F)n1` [Example 7, Methyl ((1R,3R)-3-(7-(3-fluoro-1-(methyl-d3)-1H-pyrazol-4-yl)-8-(4-fluorophenyl)-3-(methyl-d3)-2-oxo-3,6-dihydroimidazo[4,5-d]pyrrolo[2,3-b]pyridin-1(2H)-yl)cyclopentyl)carbamate], the half-inhibitory concentration (IC50) in data set [1] (Table A) and in data set [1] (Table C) was at most 10 nM throughout. The AUC in data set [2] was over 1.5 µM·h.
On to `[2H]C([2H])([2H])n1cc(-c2[nH]c3ncc4c(c3c2-c2ccc3c(c2)COC3(C)C)n([C@@H]2CC[C@@H](NC(=O)OC)C2)c(=O)n4C([2H])([2H])[2H])c(F)n1` [Example 8, Methyl ((1R,3R)-3-(8-(1,1-dimethyl-1,3-dihydroisobenzofuran-5-yl)-7-(3-fluoro-1-(methyl-d3)-1H-pyrazol-4-yl)-3-(methyl-d3)-2-oxo-3,6-dihydroimidazo[4,5-d]pyrrolo[2,3-b]pyridin-1(2H)-yl)cyclopentyl)carbamate], for which the IC50 in data set [1] (Table A) and in data set [1] (Table C) was at most 10 nM throughout. Further, in data set [2], the AUC was at most 0.5 µM·h.
`COC(=O)N[C@@H]1CC[C@@H](n2c(=O)n(C)c3cnc4[nH]c(-c5cn(C)nc5OC)c(-c5ccc(OC)c(F)c5)c4c32)C1` [Example 4, Methyl ((1R,3R)-3-(8-(3-fluoro-4-methoxyphenyl)-7-(3-methoxy-1-methyl-1H-pyrazol-4-yl)-3-methyl-2-oxo-3,6-dihydroimidazo[4,5-d]pyrrolo[2,3-b]pyridin-1(2H)-yl)cyclopentyl)carbamate]: the IC50 in data set [1] (Table A) and in data set [1] (Table C) was at most 10 nM throughout. In data set [2], the AUC is over 1.5 µM·h.
